In patent US20060069132A1, “Azolecarboxamide herbicides” (priority 2004, published 2006):

Key:
large crabgrass = experiment: Test A pre-/postemergence herbicide test; type: in vivo, Digitaria sanguinalis; conditions: for Plant response rating, Crabgrass, Large: Postemergence; for Crabgrass, Large plant response rating: Preemergence
In short: (§1)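 Seeds sown in sandy loam received a preemergence directed soil spray of compound in non-phytotoxic solvent with surfactant; postemergence plants (2–10 cm, one- to two-leaf stage) were sprayed to runoff at the same time. After ~10 days in greenhouse, injury was rated visually versus untreated controls (0 = no effect, 100 = complete control).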

velvetleaf = experiment: Test A pre-/postemergence herbicide test; type: in vivo, Abutilon theophrasti; conditions: for Plant response rating, Velvetleaf: Postemergence; for Velvetleaf plant response rating: Preemergence
In short: as §1

Surinam grass = experiment: Test C pre-/postemergence herbicide test; type: in vivo, Urochloa decumbens; conditions: for Surinam Grass plant response rating: 500 g ai/ha
In short: (§2)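 Seeds were planted and sprayed preemergence with test chemicals in a non-phytotoxic solvent mixture containing surfactant; postemergence treatments went onto plants 2 to 18 cm tall (1- to 4-leaf stage). After 12 to 14 days in a greenhouse, injury was rated visually against untreated controls on a 0–100 scale.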

woolly cupgrass = experiment: Test C pre-/postemergence herbicide test; type: in vivo, Eriochloa villosa; conditions: for Cupgrass, Woolly plant response rating: 500 g ai/ha
In short: as §2

goosegrass = experiment: Test C pre-/postemergence herbicide test; type: in vivo, Eleusine indica; conditions: for Goosegrass plant response rating: 500 g ai/ha
In short: as §2

johnsongrass = experiment: Test C pre-/postemergence herbicide test; type: in vivo, Sorghum halepense; conditions: for Johnsongrass plant response rating: 500 g ai/ha
In short: as §2

eastern black nightshade = experiment: Test C pre-/postemergence herbicide test; type: in vivo, Solanum ptycanthum; conditions: for Plant response rating (0 = no effect, 100 = complete control), Nightshade: 62 g ai/ha; for Plant response rating (0 = no effect, 100 = complete control), Nightshade / Plant response rating, Nightshade: preemergence; for Plant response rating, Nightshade: visual, 12 to 14 days; for Nightshade plant response rating: Preemergence, 500 g ai/ha, scale 0 to 100, 0 no effect, 100 complete control
In short: as §2

soybean = experiment: Test C pre-/postemergence herbicide test; type: in vivo, Glycine max; conditions: for Soybean plant response rating: 500 g ai/ha
In short: as §2

[1] = tested on: common (oilseed) sunflower; experiment: Test C pre-/postemergence herbicide test; type: in vivo, Helianthus annuus; conditions: for Plant response rating (0 = no effect, 100 = complete control), Sunflower: 62 g ai/ha; for Plant response rating (0 = no effect, 100 = complete control), Sunflower / Plant response rating, Sunflower: preemergence; for Plant response rating, Sunflower: visual, 12 to 14 days; for Sunflower plant response rating: Preemergence, 500 g ai/ha, scale 0 to 100, 0 no effect, 100 complete control
In short: as §2

[2] = 500 g ai/ha, 0 to 100 scale, 0 no effect, 100 complete control
[3] = 2000 g ai/ha, 0 to 100 scale, 0 no effect, 100 complete control
[4] = 500 g ai/ha, visual rating, 0 to 100 scale (0 no effect, 100 complete control)
[5] = 125 g ai/ha, scale 0 (no effect) to 100 (complete control), visual, 12 to 14 days, preemergence
[6] = 250 g ai/ha, scale 0 to 100 (0 no effect, 100 complete control), visual, 12 to 14 days, preemergence
[7] = Postemergence, 250 g ai/ha, scale 0 to 100, 0 no effect, 100 complete control
[8] = Preemergence, scale 0 to 100, 0 no effect, 100 complete control
[9] = postemergence, 62 g ai/ha, scale 0 to 100
[10] = Postemergence, 125 g ai/ha, scale 0 to 100, 0 no effect, 100 complete control
[11] = 125 g ai/ha, scale 0 (no effect) to 100 (complete control)
[12] = 250 g ai/ha, scale 0 to 100 (0 no effect, 100 complete control)

C#CCNC(=O)c1cccc(NC(=O)c2cc(C(C)(C)C)nn2CC)c1 [Compound 47]
Plant response rating, Crabgrass, Large (large crabgrass; [2]): 85 | Plant response rating, Crabgrass, Large (large crabgrass; [3]): 100 | Crabgrass, Large plant response rating (large crabgrass; [4]): 55 | Crabgrass, Large plant response rating (large crabgrass; [3]): 90 | Plant response rating, Velvetleaf (velvetleaf; [3]): 40 | Velvetleaf plant response rating (velvetleaf; [4]): 20 | Velvetleaf plant response rating (velvetleaf; [3]): 95 | Plant response rating (0 = no effect, 100 = complete control), Surinam Grass (Surinam grass; 62 g ai/ha, preemergence): 0 | Plant response rating, Surinam Grass (Surinam grass; [5]): 10 | Plant response rating, Surinam Grass (Surinam grass; [6]): 60 | Surinam Grass plant response rating (Surinam grass; Postemergence, scale 0 to 100): 70 | Plant response rating, Surinam Grass (Surinam grass; [7]): 60 | Surinam Grass plant response rating (Surinam grass; [8]): 80 | Plant response rating, Surinam Grass (Surinam grass; [9]): 30 | Plant response rating (0 = no effect, 100 = complete control), Cupgrass, Woolly (woolly cupgrass; 62 g ai/ha, preemergence): 10 | Plant response rating, Cupgrass, Woolly (woolly cupgrass; [5]): 10 | Plant response rating, Cupgrass, Woolly (woolly cupgrass; [6]): 60 | Cupgrass, Woolly plant response rating (woolly cupgrass; Postemergence, scale 0 to 100): 80 | Plant response rating, Cupgrass, Woolly (woolly cupgrass; [10]): 60 | Plant response rating, Cupgrass, Woolly (woolly cupgrass; [7]): 70 | Cupgrass, Woolly plant response rating (woolly cupgrass; [8]): 80 | Plant response rating, Cupgrass, Woolly (woolly cupgrass; [9]): 60 | Plant response rating (0 = no effect, 100 = complete control), Goosegrass (goosegrass; 62 g ai/ha, preemergence): 80 | Plant response rating, Goosegrass (goosegrass; [5]): 100 | Plant response rating, Goosegrass (goosegrass; [6]): 100 | Goosegrass plant response rating (goosegrass; Postemergence, scale 0 to 100): 80 | Plant response rating, Goosegrass (goosegrass; [10]): 60 | Plant response rating, Goosegrass (goosegrass; [7]): 60 | Goosegrass plant response rating (goosegrass; [8]): 100 | Plant response rating, Goosegrass (goosegrass; [9]): 50 | Plant response rating (0 = no effect, 100 = complete control), Johnsongrass (johnsongrass; 62 g ai/ha, preemergence): 20 | Plant response rating, Johnsongrass (johnsongrass; [5]): 100 | Plant response rating, Johnsongrass (johnsongrass; [6]): 100 | Johnsongrass plant response rating (johnsongrass; Postemergence, scale 0 to 100): 90 | Plant response rating, Johnsongrass (johnsongrass; [10]): 30 | Plant response rating, Johnsongrass (johnsongrass; [7]): 90 | Johnsongrass plant response rating (johnsongrass; [8]): 100 | Plant response rating, Johnsongrass (johnsongrass; [9]): 30 | Plant response rating (0 = no effect, 100 = complete control), Nightshade (eastern black nightshade): 100 | Plant response rating, Nightshade (eastern black nightshade; [11]): 100 | Plant response rating, Nightshade (eastern black nightshade; [12]): 100 | Nightshade plant response rating (eastern black nightshade): 100 | Plant response rating (0 = no effect, 100 = complete control), Soybean (soybean; 62 g ai/ha, preemergence): 0 | Plant response rating, Soybean (soybean; [5]): 0 | Plant response rating, Soybean (soybean; [6]): 10 | Soybean plant response rating (soybean; Postemergence, scale 0 to 100): 100 | Plant response rating, Soybean (soybean; [7]): 100 | Soybean plant response rating (soybean; [8]): 20 | Plant response rating, Soybean (soybean; [9]): 100 | Plant response rating (0 = no effect, 100 = complete control), Sunflower [1]: 0 | Plant response rating, Sunflower [1, 11]: 0 | Plant response rating, Sunflower [1, 12]: 10 | Sunflower plant response rating [1]: 40

C=CCNC(=O)c1cccc(NC(=O)c2cc(C(C)(C)C)nn2CC)c1 [Compound 46]
Plant response rating, Crabgrass, Large (large crabgrass; [2]): 75 | Plant response rating, Crabgrass, Large (large crabgrass; [3]): 90 | Crabgrass, Large plant response rating (large crabgrass; [4]): 65 | Crabgrass, Large plant response rating (large crabgrass; [3]): 90 | Plant response rating, Velvetleaf (velvetleaf; [3]): 75 | Velvetleaf plant response rating (velvetleaf; [4]): 30 | Velvetleaf plant response rating (velvetleaf; [3]): 85 | Plant response rating (0 = no effect, 100 = complete control), Surinam Grass (Surinam grass; 62 g ai/ha, preemergence): 10 | Plant response rating, Surinam Grass (Surinam grass; [5]): 30 | Plant response rating, Surinam Grass (Surinam grass; [6]): 60 | Surinam Grass plant response rating (Surinam grass; Postemergence, scale 0 to 100): 50 | Plant response rating, Surinam Grass (Surinam grass; [7]): 50 | Surinam Grass plant response rating (Surinam grass; [8]): 80 | Plant response rating, Surinam Grass (Surinam grass; [9]): 40 | Plant response rating (0 = no effect, 100 = complete control), Cupgrass, Woolly (woolly cupgrass; 62 g ai/ha, preemergence): 10 | Plant response rating, Cupgrass, Woolly (woolly cupgrass; [5]): 10 | Plant response rating, Cupgrass, Woolly (woolly cupgrass; [6]): 30 | Cupgrass, Woolly plant response rating (woolly cupgrass; Postemergence, scale 0 to 100): 70 | Plant response rating, Cupgrass, Woolly (woolly cupgrass; [10]): 60 | Plant response rating, Cupgrass, Woolly (woolly cupgrass; [7]): 70 | Cupgrass, Woolly plant response rating (woolly cupgrass; [8]): 80 | Plant response rating, Cupgrass, Woolly (woolly cupgrass; [9]): 40 | Plant response rating (0 = no effect, 100 = complete control), Goosegrass (goosegrass; 62 g ai/ha, preemergence): 60 | Plant response rating, Goosegrass (goosegrass; [5]): 90 | Plant response rating, Goosegrass (goosegrass; [6]): 100 | Goosegrass plant response rating (goosegrass; Postemergence, scale 0 to 100): 80 | Plant response rating, Goosegrass (goosegrass; [10]): 50 | Plant response rating, Goosegrass (goosegrass; [7]): 50 | Goosegrass plant response rating (goosegrass; [8]): 100 | Plant response rating, Goosegrass (goosegrass; [9]): 40 | Plant response rating (0 = no effect, 100 = complete control), Johnsongrass (johnsongrass; 62 g ai/ha, preemergence): 50 | Plant response rating, Johnsongrass (johnsongrass; [5]): 80 | Plant response rating, Johnsongrass (johnsongrass; [6]): 90 | Johnsongrass plant response rating (johnsongrass; Postemergence, scale 0 to 100): 90 | Plant response rating, Johnsongrass (johnsongrass; [10]): 60 | Johnsongrass plant response rating (johnsongrass; [8]): 100 | Plant response rating, Johnsongrass (johnsongrass; [9]): 60 | Plant response rating (0 = no effect, 100 = complete control), Nightshade (eastern black nightshade): 90 | Plant response rating, Nightshade (eastern black nightshade; [11]): 100 | Plant response rating, Nightshade (eastern black nightshade; [12]): 100 | Nightshade plant response rating (eastern black nightshade): 100 | Plant response rating (0 = no effect, 100 = complete control), Soybean (soybean; 62 g ai/ha, preemergence): 0 | Plant response rating, Soybean (soybean; [5]): 0 | Plant response rating, Soybean (soybean; [6]): 10 | Soybean plant response rating (soybean; Postemergence, scale 0 to 100): 100 | Plant response rating, Soybean (soybean; [7]): 100 | Soybean plant response rating (soybean; [8]): 10 | Plant response rating, Soybean (soybean; [9]): 100 | Plant response rating (0 = no effect, 100 = complete control), Sunflower [1]: 0 | Plant response rating, Sunflower [1, 11]: 10 | Plant response rating, Sunflower [1, 12]: 10 | Sunflower plant response rating [1]: 10
